Patent US6340689B1 (priority 1999, dated 2002)
≈ marks a conversion by molar mass, not a printed value.

Columns and labels:
[1] = test system: L. pneumophila serogroup 1; experiment: microbe, parasite or virus in culture; type: cell-based, Legionella pneumophila; settings: Legionella pneumophila; for MIC: 48 h, read-out: MIC Range; for MIC90: L. pneumophila serogroup 1 (n = 85)
[2] = test system: L. pneumophila serogroup 2; experiment: microbe, parasite or virus in culture; type: cell-based; settings: Legionella pneumophila; for MIC: 48 h, read-out: MIC Range
[3] = test system: L. pneumophila serogroup 3; experiment: microbe, parasite or virus in culture; type: cell-based; settings: Legionella pneumophila; for MIC: 48 h, read-out: MIC Range
[4] = test system: L. pneumophila serogroup 4; experiment: microbe, parasite or virus in culture; type: cell-based; settings: Legionella pneumophila; for MIC: 48 h, read-out: MIC Range
[5] = test system: L. pneumophila serogroup 5; experiment: microbe, parasite or virus in culture; type: cell-based; settings: Legionella pneumophila; for MIC: 48 h, read-out: MIC Range
[6] = test system: L. pneumophila serogroup 6; experiment: microbe, parasite or virus in culture; type: cell-based; settings: Legionella pneumophila; for MIC: 48 h, read-out: MIC Range
[7] = test system: L. pneumophila serogroup 7; experiment: microbe, parasite or virus in culture; type: cell-based; settings: Legionella pneumophila; for MIC: 48 h, read-out: MIC Range
[8] = test system: L. pneumophila serogroup 8, 9; experiment: microbe, parasite or virus in culture; type: cell-based; settings: Legionella pneumophila; for MIC: 48 h, read-out: MIC Range
L. dumoffii = experiment: organism not typed; type: cell-based; settings: for MIC: 48 h, read-out: MIC Range
L. micadadei = experiment: organism not typed; type: cell-based, L. micdadei; settings: for MIC: 48 h, read-out: MIC Range
L. longbeacheae = experiment: organism not typed; type: cell-based; settings: for MIC: 48 h, read-out: MIC Range
Other Legionella spp. = experiment: microbe, parasite or virus in culture; type: cell-based; settings: for MIC: 48 h, read-out: MIC Range
[9] = test system: Erythromycin-susceptible L. pneumophila; type: cell-based, Legionella pneumophila; settings: Erythromycin-susceptible L. pneumophila (n = 15); 4 × MIC; mean ± SD
[10] = test system: Erythromycin-susceptible Legionella spp. other than L. pneumophila; type: cell-based; settings: Erythromycin-susceptible Legionella spp. (n = 13); 4 × MIC; mean ± SD

Compound | MIC50 [1] [µg/mL] | MIC [1] [µg/mL] | MIC90 [1] [µg/mL] | MIC50 [2] [µg/mL] | MIC90 [2] [µg/mL] | MIC [2] [µg/mL] | MIC50 [3] [µg/mL] | MIC90 [3] [µg/mL] | MIC [3] [µg/mL] | MIC50 [4] [µg/mL] | MIC90 [4] [µg/mL] | MIC [4] [µg/mL] | MIC50 [5] [µg/mL] | MIC90 [5] [µg/mL] | MIC [5] [µg/mL] | MIC50 [6] [µg/mL] | MIC90 [6] [µg/mL] | MIC [6] [µg/mL] | MIC50 [7] [µg/mL] | MIC90 [7] [µg/mL] | also measured
CC[C@H]1OC(=O)[C@H](C)[C@@H](O[C@H]2C[C@@](C)(OC)[C@@H](O)[C@H](C)O2)[C@H](C)[C@@H](O[C@@H]2O[C@H](C)C[C@H](N(C)C)[C@H]2O)[C@](C)(O)C[C@@H](C)CN(C)[C@H](C)[C@@H](O)[C@]1(C)O [Azithromycin] | 0.06 (≈ 0.0801 µM) | 0.008 to 1 (≈ 0.0107 to 1.34 µM) | 0.5 (≈ 0.668 µM) | 0.06 (≈ 0.0801 µM) | 0.12 (≈ 0.16 µM) | 0.008 to 0.12 (≈ 0.0107 to 0.16 µM) | 0.12 (≈ 0.16 µM) | 0.25 (≈ 0.334 µM) | 0.016 to 0.25 (≈ 0.0214 to 0.334 µM) | 0.12 (≈ 0.16 µM) | 0.12 (≈ 0.16 µM) | 0.008 to 0.25 (≈ 0.0107 to 0.334 µM) | 0.03 (≈ 0.0401 µM) | 0.25 (≈ 0.334 µM) | 0.008 to 0.5 (≈ 0.0107 to 0.668 µM) | 0.06 (≈ 0.0801 µM) | 0.12 (≈ 0.16 µM) | 0.016 to 0.25 (≈ 0.0214 to 0.334 µM) | 0.06 (≈ 0.0801 µM) | 0.06 (≈ 0.0801 µM) | MIC [7]: 0.06 µg/mL (≈ 0.0801 µM); MIC50 [8]: 0.06 µg/mL (≈ 0.0801 µM); MIC90 [8]: 0.06 µg/mL (≈ 0.0801 µM); MIC [8]: 0.06 µg/mL (≈ 0.0801 µM); MIC50 (L. dumoffii): 0.12 µg/mL (≈ 0.16 µM); MIC90 (L. dumoffii): 0.25 µg/mL (≈ 0.334 µM); MIC (L. dumoffii): 0.12 to 0.25 µg/mL (≈ 0.16 to 0.334 µM); MIC50 (L. micadadei): 0.25 µg/mL (≈ 0.334 µM); MIC90 (L. micadadei): 0.25 µg/mL (≈ 0.334 µM); MIC (L. micadadei): 0.016 to 0.25 µg/mL (≈ 0.0214 to 0.334 µM); MIC50 (L. longbeacheae): 0.12 µg/mL (≈ 0.16 µM); MIC90 (L. longbeacheae): 0.25 µg/mL (≈ 0.334 µM); MIC (L. longbeacheae): 0.016 to 0.25 µg/mL (≈ 0.0214 to 0.334 µM); MIC50 (Other Legionella spp.): 0.12 µg/mL (≈ 0.16 µM); MIC90 (Other Legionella spp.): 0.5 µg/mL (≈ 0.668 µM); MIC (Other Legionella spp.): 0.016 to 0.5 µg/mL (≈ 0.0214 to 0.668 µM); Mean PAE [9]: 2.91 ± 3 h; Mean PAE [10]: 1.86 ± 2 h
CC[C@H]1OC(=O)[C@H](C)[C@@H](O[C@H]2C[C@@](C)(OC)[C@@H](O)[C@H](C)O2)[C@H](C)[C@@H](O[C@@H]2O[C@H](C)C[C@H](N(C)C)[C@H]2O)[C@](C)(OC)C[C@@H](C)C(=O)[C@H](C)[C@@H](O)[C@]1(C)O [Clarithromycin] | 0.06 (≈ 0.0802 µM) | 0.004 to 0.12 (≈ 0.00535 to 0.16 µM) | 0.06 (≈ 0.0802 µM) | 0.03 (≈ 0.0401 µM) | 0.06 (≈ 0.0802 µM) | 0.004 to 0.06 (≈ 0.00535 to 0.0802 µM) | 0.03 (≈ 0.0401 µM) | 0.06 (≈ 0.0802 µM) | 0.016 to 0.06 (≈ 0.0214 to 0.0802 µM) | 0.03 (≈ 0.0401 µM) | 0.06 (≈ 0.0802 µM) | 0.004 to 0.06 (≈ 0.00535 to 0.0802 µM) | 0.03 (≈ 0.0401 µM) | 0.06 (≈ 0.0802 µM) | 0.03 to 0.06 (≈ 0.0401 to 0.0802 µM) | 0.016 (≈ 0.0214 µM) | 0.06 (≈ 0.0802 µM) | 0.004 to 0.06 (≈ 0.00535 to 0.0802 µM) | 0.016 (≈ 0.0214 µM) | 0.06 (≈ 0.0802 µM) | MIC [7]: 0.016 to 0.06 µg/mL (≈ 0.0214 to 0.0802 µM); MIC50 [8]: 0.06 µg/mL (≈ 0.0802 µM); MIC90 [8]: 0.06 µg/mL (≈ 0.0802 µM); MIC [8]: 0.06 µg/mL (≈ 0.0802 µM); MIC50 (L. dumoffii): 0.03 µg/mL (≈ 0.0401 µM); MIC90 (L. dumoffii): 0.06 µg/mL (≈ 0.0802 µM); MIC (L. dumoffii): 0.03 to 0.06 µg/mL (≈ 0.0401 to 0.0802 µM); MIC50 (L. micadadei): 0.06 µg/mL (≈ 0.0802 µM); MIC90 (L. micadadei): 0.06 µg/mL (≈ 0.0802 µM); MIC (L. micadadei): 0.03 to 0.12 µg/mL (≈ 0.0401 to 0.16 µM); MIC50 (L. longbeacheae): 0.06 µg/mL (≈ 0.0802 µM); MIC90 (L. longbeacheae): 0.06 µg/mL (≈ 0.0802 µM); MIC (L. longbeacheae): 0.008 to 0.06 µg/mL (≈ 0.0107 to 0.0802 µM); MIC50 (Other Legionella spp.): 0.03 µg/mL (≈ 0.0401 µM); MIC90 (Other Legionella spp.): 0.12 µg/mL (≈ 0.16 µM); MIC (Other Legionella spp.): 0.004 to 0.12 µg/mL (≈ 0.00535 to 0.16 µM); Mean PAE [9]: 0.72 ± 2 h; Mean PAE [10]: 0.98 ± 2 h
CC[C@H]1OC(=O)[C@H](C)[C@@H](O[C@H]2C[C@@](C)(OC)[C@@H](O)[C@H](C)O2)[C@H](C)[C@@H](O[C@@H]2O[C@H](C)C[C@H](N(C)C)[C@H]2O)[C@](C)(O)C[C@@H](C)C(=O)[C@H](C)[C@@H](O)[C@]1(C)O [Erythromycin] | 0.25 (≈ 0.341 µM) | 0.03 to 1 (≈ 0.0409 to 1.36 µM) | 1 (≈ 1.36 µM) | 0.25 (≈ 0.341 µM) | 0.25 (≈ 0.341 µM) | 0.008 to 0.5 (≈ 0.0109 to 0.681 µM) | 0.25 (≈ 0.341 µM) | 0.5 (≈ 0.681 µM) | 0.06 to 0.5 (≈ 0.0818 to 0.681 µM) | 0.5 (≈ 0.681 µM) | 0.5 (≈ 0.681 µM) | 0.016 to 0.5 (≈ 0.0218 to 0.681 µM) | 0.25 (≈ 0.341 µM) | 0.5 (≈ 0.681 µM) | 0.06 to 1 (≈ 0.0818 to 1.36 µM) | 0.12 (≈ 0.164 µM) | 0.25 (≈ 0.341 µM) | 0.008 to 0.25 (≈ 0.0109 to 0.341 µM) | 0.12 (≈ 0.164 µM) | 0.5 (≈ 0.681 µM) | MIC [7]: 0.12 to 0.5 µg/mL (≈ 0.164 to 0.681 µM); MIC50 [8]: 0.25 µg/mL (≈ 0.341 µM); MIC90 [8]: 0.25 µg/mL (≈ 0.341 µM); MIC [8]: 0.25 µg/mL (≈ 0.341 µM); MIC50 (L. dumoffii): 0.25 µg/mL (≈ 0.341 µM); MIC90 (L. dumoffii): 0.5 µg/mL (≈ 0.681 µM); MIC (L. dumoffii): 0.25 to 0.5 µg/mL (≈ 0.341 to 0.681 µM); MIC50 (L. micadadei): 0.5 µg/mL (≈ 0.681 µM); MIC90 (L. micadadei): 1 µg/mL (≈ 1.36 µM); MIC (L. micadadei): 0.25 to 1 µg/mL (≈ 0.341 to 1.36 µM); MIC50 (L. longbeacheae): 0.25 µg/mL (≈ 0.341 µM); MIC90 (L. longbeacheae): 0.5 µg/mL (≈ 0.681 µM); MIC (L. longbeacheae): 0.008 to 0.5 µg/mL (≈ 0.0109 to 0.681 µM); MIC50 (Other Legionella spp.): 0.5 µg/mL (≈ 0.681 µM); MIC90 (Other Legionella spp.): 1 µg/mL (≈ 1.36 µM); MIC (Other Legionella spp.): 0.016 to 1 µg/mL (≈ 0.0218 to 1.36 µM); Mean PAE [9]: 0.93 ± 1 h; Mean PAE [10]: 2.06 ± 2 h
